Results taken from patent US10159685B2, “Vascular calcification” (Cambridge Enterprise Limited, priority 2016, dated 2018).
Like-named read-outs stand apart in the source and are kept apart here. Marks after values point to notes of the source that are not given here.

How the values were obtained:
[1] = test system: bovine vascular smooth muscle cells (bVSMCs); assay type: cell-based; details: 7 days; for Cell viability of bVSMCs after seven days (MTT signal, relative to control): mean of three experiments
Procedure: The toxicity of the identified compounds to bovine VSMCs was measured using the MTT assay, which measures the activity of dehydrogenase enzymes of live cells. This assay can pick up both cell death and proliferation.
Bovine VSMCs were seeded in 96 well plates and cultured in M199/20% FCS for 1 day. Then, the cells were incubated with inhibitor concentrations from 0.5 to 100 μM (in M199 medium+5% FBS). The cells were incubated with the inhibitors for 7 days; every 2-3 days the medium −/+inhibitors was exchanged. Then, the MTT assay was performed. The stock vehicle DMSO was tested at corresponding concentrations to the inhibitors at 0.1% DMSO or less.

[2] = test system: human monocyte-macrophages (HMMs); test: MTT toxicity assay, HMMs, seven days (Example 3); assay type: cell-based; details: 7 days; for Cell viability by MTT, percent of control: mean of three experiments; for Toxicity to HMMs (in words): at a concentration of 100 μM
Procedure: A similar set of toxicity experiments was performed with human monocyte-macrophages (HMMs).

[3] = test system: bovine vascular smooth muscle cells (bVSMCs); test: o-Cresolphthalein Ca2+ assay, bVSMC GAD calcification model (Examples 4 and 5); assay type: cell-based; details: GAD-treated bVSMCs, 10 μM, 7 d
Procedure: (§1) For the bVSMCs a GAD medium (10 mM β-glycerophosphate/0.1 mM L-ascorbic acid-2-phosphate/10 nM dexamethasone) model was used to induce mineralization in bVSMCs. Accordingly, cells were seeded in tissue culture plates using M199/20% FCS culture medium and cultured overnight. The next day, cells were treated either with medium only (M199/5% FBS)+/−inhibitors, or with the GAD-medium (10 mM β-glycerophosphate/0.1 mM L-ascorbic acid-2-phosphate/[…] dexamethasone)+/−inhibitors.
Medium+/−inhibitors was exchanged every 2-3 days. […]
The o-Cresolphthalein assay is a spectrophotometric method for measuring Ca^2+-concentrations in cell/tissue lysates. Following the calcification experiments, cells are briefly washed to remove medium and 100 […]1 of 0.1 N HCl is added to each well to dissolve any mineral deposits. Then, the Ca^2+-concentration of the samples is measured spectrophotometrically (at 570 nm) in the o-cresolphthalein assay with the help of a CaCl2 standard curve in a concentration range of ˜0.02-270 µg Ca^2+/ml.
The commercial BioRad DC protein assay is based on the Lowry method, aka reaction of proteins with a copper-tartrate complex and subsequent reaction with Folin's reagent. Following the calcification experiment, cells are briefly washed to remove medium and 100 µl of solubilisation solution (0.1 M NaOH/1% SDS/DIW) is added to each well to lyse the cells. The protein concentrations of the lysates are subsequently determined in the BioRad DC assay as per supplier's instructions using BSA (bovine serum albumin) as standard.
The in vitro model is the same as the model used in example 4; bovine vascular smooth muscle cells (bVSMCs) cultured so that they produce extracellular matrix, with the addition of the GAD medium (10 mM β-glycerophosphate/0.1 mM L-ascorbic acid-2-phosphate/10 nM dexamethasone).
As above, cells were treated either with medium only (“no-additions”; NA)+/−inhibitors, or with the GAD-medium+/−inhibitors. The inhibitors used were PJ34 and minocyclin (MC) at 10 μM, 1 μM and 0.1 μM.
The methodology was the same as that described in example 4.

[4] = test system: human vascular smooth muscle cells (hVSMCs); test: o-Cresolphthalein Ca2+ assay, hVSMC Ca/P calcification model (Examples 7-9); assay type: cell-based; details: hVSMCs, 8 days, concentrations between 0.05 μM and 3 μM
Procedure: (§2) Primary hVSMCs were cultured in M199 media containing FBS (M199/5% FBS). They were plated at a known cell density, allowed to grow for 24 hours and then treated with control (DMSO only) or calcification media (DMSO containing 2.7 mM Calcium+2.5 mM phosphate)+/−inhibitors. After 6 days, calcification was assessed using the o-Cresolphthalein assay for quantification of Ca^2+ deposition and a BioRad protein assay for protein content.
Medium+/−inhibitors was exchanged every 2-3 days.
as §2, with “8” for “6”, “using” for “using the”
All of the compounds tested were used at a concentration of 3 μM. Medium+/−inhibitors was exchanged every 2-3 days.
as §2, with “phosphate)+/−compounds.” for “phosphate)+/−inhibitors.”, “8” for “6”, “using” for “using the”
These concentrations were chosen to mimic the systemic concentrations of these drugs following patient dosing according to the dose schedule in the prescribing information for each drug. Medium+/−inhibitors was exchanged every 2-3 days.

[5] = test system: PARP produced by a mammalian cell; details: have been shown; cited from earlier work
[6] = test system: bovine vascular smooth muscle cells (bVSMCs); test: Alizarin Red S staining, bVSMC GAD calcification model (Example 4); assay type: cell-based; details: GAD-treated bVSMCs, 10 μM, 7 d, versus no inhibitor
Procedure: as §1
Medium+/−inhibitors was exchanged every 2-3 days. Bovine VSMCs were incubated for 7 d prior to assessment.
The Alizarin Red S staining is a visual/histological stain for tissue calcium deposits. Cells are briefly fixed in 4% paraformaldehyde/PIPES buffer pH 7.2 and subsequently stained for 5 min with Alizarin Red S (2% Alizarin Red S/DIW pH 4.2). Excess stain is removed by washing in DIW. Calcium mineral deposits are stained a bright orange red.

[7] = at the concentrations tested (0.5 to 100 μM)

Compound	Cell viability of bVSMCs after seven days (MTT signal, relative to control) ([1]; 0.5 uM)	Cell viability of bVSMCs after seven days (MTT signal, relative to control) ([1]; 1 uM)	Cell viability of bVSMCs after seven days (MTT signal, relative to control) ([1]; 2 uM)	Cell viability of bVSMCs after seven days (MTT signal, relative to control) ([1]; 5 uM)	Cell viability of bVSMCs after seven days (MTT signal, relative to control) ([1]; 10 uM)	Cell viability of bVSMCs after seven days (MTT signal, relative to control) ([1]; 20 uM)	Cell viability of bVSMCs after seven days (MTT signal, relative to control) ([1]; 50 uM)	Cell viability of bVSMCs after seven days (MTT signal, relative to control) ([1]; 100 uM)	Toxicity to bVSMCs (MTT assay, in words) [1, 7]	Cell viability by MTT, percent of control ([2]; 0.5 uM)	Cell viability by MTT, percent of control ([2]; 1 uM)	Cell viability by MTT, percent of control ([2]; 2 uM)	Cell viability by MTT, percent of control ([2]; 5 uM)	Cell viability by MTT, percent of control ([2]; 10 uM)	Cell viability by MTT, percent of control ([2]; 20 uM)	Cell viability by MTT, percent of control ([2]; 50 uM)	Cell viability by MTT, percent of control ([2]; 100 uM)	Toxicity to HMMs (in words) [2]	Calcium levels (mass of calcium, FIG. 7B) compared to no inhibitors [3]	Normalised calcium levels (mass of calcium per mass of protein, FIG. 9B) [3]	also measured
CC(=O)CCCCn1c(=O)c2c(ncn2C)n(C)c1=O [Pentoxifylline, pentoxifylline]	97.68	95.91	92.19*	91.33*	91.77*	92.43*	93.01*	96.96	virtually non-toxic	98.73	90.57	91.92	107.27	88.35	93.54	89.28	89.64	relatively innocuous	no effect	slightly lower calcium levels	Inhibition of calcification, normalised results (FIG. 27) [4]: do not inhibit calcification
COc1ccccc1Oc1c(NS(=O)(=O)c2ccc(C(C)(C)C)cc2)nc(-c2ncccn2)nc1OCCO [bosentan MH, Bosentan monohydrate]	101.97	96.12	91.91*	93.05*	93.87*	97.20	103.69	85.05*	little toxicity	91.59	99.82	97.16	84.90	79.36	83.25	73.65	64.97*	most toxic	no effect	slightly lower calcium levels	Inhibition of calcification, normalised results (FIG. 27) [4]: do not inhibit calcification
NC(=O)c1cccc(N)c1 [3-AB, 3-aminobenzamide]	95.77	99.58	94.53	93.35*	91.99*	93.42*	94.64	92.48*	virtually non-toxic	115.25	80.78	88.03	93.51	97.34	85.76	95.92	104.20	relatively innocuous	no effect	slightly lower calcium levels	Inhibition of PARP produced by a mammalian cell [5]: inhibit PARP
OCCN(CCO)c1nc(N2CCCCC2)c2nc(N(CCO)CCO)nc(N3CCCCC3)c2n1 [Dipyridamol, dipyridamol]																			elevate calcium levels	elevate calcium levels	Toxicity to bVSMCs (MTT assay, in words) ([1]; at 50 and 100 μM): toxic; Degree of mineralization judged by eye (Alizarin Red S, FIG. 6) [6]: slightly worse
